The text below walks through data of PMC4880925 (Scientific Reports, 2016).

Assay [1] has as its target T1, CYP144A1 (Mycobacterium tuberculosis, UniProt P9WPL1).
T1 construct: gene cyp144
In kind it is binding.
Target sequence in this assay (P9WPL1 whole entry): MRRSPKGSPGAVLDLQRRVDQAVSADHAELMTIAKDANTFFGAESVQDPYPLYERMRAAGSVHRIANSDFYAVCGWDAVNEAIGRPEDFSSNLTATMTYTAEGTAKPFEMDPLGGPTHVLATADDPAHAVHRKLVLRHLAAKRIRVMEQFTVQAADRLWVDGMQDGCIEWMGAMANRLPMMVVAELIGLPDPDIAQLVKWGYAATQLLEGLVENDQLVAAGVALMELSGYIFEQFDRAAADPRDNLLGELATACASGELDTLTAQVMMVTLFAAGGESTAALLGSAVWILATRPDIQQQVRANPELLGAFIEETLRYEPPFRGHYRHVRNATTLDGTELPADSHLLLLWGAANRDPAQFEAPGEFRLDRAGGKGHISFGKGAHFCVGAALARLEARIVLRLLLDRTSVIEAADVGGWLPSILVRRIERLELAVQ

For assay [2], the target named is T1, CYP144A1. The assay can be described thus: […]; supported by EPR and DSC (Tm […] to […] °C). The class given is binding.
Target sequence in this assay (P9WPL1 31-434): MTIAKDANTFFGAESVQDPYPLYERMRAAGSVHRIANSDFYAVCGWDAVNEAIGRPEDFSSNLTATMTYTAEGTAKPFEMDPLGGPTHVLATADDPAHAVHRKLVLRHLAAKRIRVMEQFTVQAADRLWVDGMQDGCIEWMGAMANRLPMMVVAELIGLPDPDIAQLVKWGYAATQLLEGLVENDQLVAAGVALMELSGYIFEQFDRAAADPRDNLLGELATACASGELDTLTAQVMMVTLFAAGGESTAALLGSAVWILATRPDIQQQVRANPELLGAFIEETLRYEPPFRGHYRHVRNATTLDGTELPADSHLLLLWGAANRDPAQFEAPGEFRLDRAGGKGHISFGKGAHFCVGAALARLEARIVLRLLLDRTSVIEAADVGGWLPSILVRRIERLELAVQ

For orientation: Kd means the free concentration of one partner at which half of the binding sites on the other are occupied at equilibrium, for simple one-to-one binding. A low value points to higher affinity.

In the case of `Clc1ccccc1C(c1ccccc1)(c1ccccc1)n1ccnc1` [clotrimazole], the “differential scanning calorimetry, Tm raised from 47 to 50 °C” value at CYP144A1 [1] stood at 50 °C.

Take `Clc1ccc(COC(Cn2ccnc2)c2ccc(Cl)cc2Cl)cc1` (centres unmarked) [econazole]: the Kd on CYP144A1 [2] was 720 ± 180 nM.
